Values after ≈ are worked out from the molar mass of the structure shown.
Legend:
HT-1080 cells = experiment: Lethality of commercially available CIL41/70 structural analogs; format: cell-based; conditions: Homo sapiens, tested once in technical triplicates
Procedure: 1,000 cells per 36 μl were seeded in each well in 384-well plates. Lethal compounds were dissolved, and a twofold, 12-point dilution series was prepared in DMSO. Compound solutions were further diluted with media at 1:25, and 4 μl per well of the diluted solutions was added to cell cultures immediately after cells were seeded. […] When other cell-death-modulating compounds (100 nM sodium selenite, 1 μM cerivastatin, 100 μg/mL mevalonic acid) were used in cotreatments, they were supplemented to cell culture for 24 h before lethal compounds were added to cell culture, after which cells were further incubated for 24 h at 37° C. under 5% CO2. On the day of the viability measurement, we added 10 μl per well of 50% Alamar Blue diluted in media (Life Technologies) and further incubated the cells at 37° C. for 6 h. Fluorescence intensity (excitation/emission: 530/590) was measured with a Victor 3 plate reader (PerkinElmer), and the normalized viability was calculated as VL=(IL−I0)/(IV−I0), where VL, I0, IV, and IL are the normalized viability and the raw fluorescence intensities from the wells containing media, cells treated with a vehicle (negative control), and cells with the lethal compound (L), respectively. When the effect of a chemical modulator (M) on L was calculated, we instead used the equation VL|M=(IM,L−I0)/(IM,V−I0), where VL|M, IM,L and IM,V are the normalized viability, and fluorescence intensity from cells treated with […], respectively. The viability was typically measured in biological triplicate unless otherwise specified. A representative dose-response curve, the mean and standard error of normalized viability from one replicate were plotted. HT-1080 viability after modulator treatments corresponding to FIG. 3C and FIGS. 5E-5F is available in FIGS. 19A-19C.
Their lethality was tested once in HT-1080 cells in technical triplicates.

HT-1080 = experiment: Modulatory profiling: Alamar Blue viability, lethal compound cotreated with death modulator (EC50, AUC); format: cell-based; set-up: AUC, modulator HT.3MA / AUC, modulator HT.ALLN / AUC HT.ATA / AUC HT.ActD / AUC HT.BHA / AUC HT.BHT / AUC HT.BocD / AUC HT.CHX / AUC HT.Co2+ / AUC HT.DPQ / AUC HT.EGTA / AUC HT.Lmim / AUC HT.NAD+ / AUC HT.Nec-1 / AUC HT.SP600125 / AUC HT.TLCK / AUC HT.U0126: unit not given beside the values
BJeLR = experiment: as above; format: cell-based, human; set-up: AUC, modulator BJ.Gd3+ / AUC, modulator BJ.LNAME / AUC, modulator BJ.Lmin / AUC, modulator BJ.3MA / AUC, modulator BJ.ALLN / AUC, modulator BJ.Boc D / AUC, modulator BJ.CHX / AUC, modulator BJ.Co2+ / AUC, modulator BJ.Nec-1 / AUC, modulator BJ.Pepstatin / AUC, modulator BJ.TLCK / AUC, modulator BJ.atoc / AUC, modulator BJ.trolox / AUC, modulator BJ.zVAD: unit not given beside the values; conditions: BJeLR cells, modulatory profile value (AUC)

COc1ccccc1C/C(N)=N/OC(=O)c1ccc2c(c1)OCO2 [A05]
EC50 (HT-1080 cells): 5.04 µg/mL (≈ 15.4 µM)

N/C(Cc1ccc(Cl)cc1Cl)=N\OC(=O)C1CCCCC1 [AS1]
EC50 (HT-1080 cells): > 20 µg/mL

N/C(Cc1ccc(Cl)cc1Cl)=N\OC(=O)/C=C/c1ccccc1 [AS2]
EC50 (HT-1080 cells): 12.3 µg/mL (≈ 35.1 µM)

CC(C)(C)c1ccc(C(=O)O/N=C(\N)Cc2cccs2)cc1 [B02]
EC50 (HT-1080 cells): 3.3 µg/mL (≈ 10.4 µM)

CCc1nc(C)ccc1OC/C(N)=N/OC(C)=O [CB1]
EC50 (HT-1080 cells): > 20 µg/mL

N/C(Cc1ccc([N+](=O)[O-])cc1)=N\OC(=O)C1CCCCC1 [CB2]
EC50 (HT-1080 cells): > 20 µg/mL

Cc1ccccc1OCC(=O)O/N=C(\N)Cc1ccc(Cl)cc1 [CB3]
EC50 (HT-1080 cells): > 20 µg/mL

N/C(Cc1ccc(Cl)cc1)=N\OC(=O)COc1ccccc1Cl [CB4]
EC50 (HT-1080 cells): > 20 µg/mL

COc1ccccc1C/C(N)=N/OC(=O)COc1ccc(C(C)(C)C)cc1 [CB5]
EC50 (HT-1080 cells): > 20 µg/mL

N/C(Cc1ccc([N+](=O)[O-])cc1)=N\OC(=O)COc1cccc2ccccc12 [CB6]
EC50 (HT-1080 cells): > 20 µg/mL

CC(C)(C)c1ccc(OCC(=O)O/N=C(\N)Cc2ccc([N+](=O)[O-])cc2)cc1 [CB7]
EC50 (HT-1080 cells): > 20 µg/mL

COc1ccc(C/C(N)=N/OC(=O)Cc2ccc(Cl)cc2)cc1OC [CB8]
EC50 (HT-1080 cells): > 20 µg/mL

N/C(Cc1ccc([N+](=O)[O-])cc1)=N\OC(=O)Cc1ccc(Cl)cc1 [CB9]
EC50 (HT-1080 cells): > 20 µg/mL

COc1ccc(C/C(N)=N/OC(=O)COc2cccc3ccccc23)cc1 [CB10]
EC50 (HT-1080 cells): > 20 µg/mL

COc1ccc(C/C(N)=N/OC(=O)Cc2ccc(Cl)cc2)cc1 [CB11]
EC50 (HT-1080 cells): > 20 µg/mL

COc1ccccc1C/C(N)=N/OC(=O)Cc1ccc(Cl)cc1 [CB12]
EC50 (HT-1080 cells): > 20 µg/mL

COc1ccccc1C/C(N)=N/OC(=O)COc1cccc2ccccc12 [CB13]
EC50 (HT-1080 cells): > 20 µg/mL

CC(C)(C)C(=O)O/N=C(\N)Cc1ccc([N+](=O)[O-])cc1 [CB14]
EC50 (HT-1080 cells): 14 µg/mL (≈ 50.1 µM)

COc1ccccc1C/C(N)=N/OC(=O)COc1ccc(C)cc1C [CB15]
EC50 (HT-1080 cells): > 20 µg/mL

Cc1ccc(OCC(=O)O/N=C(\N)Cc2ccc([N+](=O)[O-])cc2)c(C)c1 [CB16]
EC50 (HT-1080 cells): > 20 µg/mL

N/C(Cc1ccc(Cl)cc1)=N\OC(=O)Cc1ccc([N+](=O)[O-])cc1 [CB17]
EC50 (HT-1080 cells): > 20 µg/mL

N[C@H](Cc1ccc(Cl)cc1)NOC(=O)/C=C/c1ccccc1 [CB18]
EC50 (HT-1080 cells): 10.2 µg/mL (≈ 32.2 µM)

CC(=O)O/N=C(N)/C(=N/OC(C)=O)c1nc2ccccc2[nH]1 [CB19]
EC50 (HT-1080 cells): > 20 µg/mL

CC(=O)NC(=N/OC(C)=O)/C(=N/OC(C)=O)c1nc2ccccc2[nH]1 [CB20]
EC50 (HT-1080 cells): > 20 µg/mL

Cc1ccccc1OCC(=O)O/N=C(\N)Cc1cccs1 [CB21]
EC50 (HT-1080 cells): > 20 µg/mL

COc1ccccc1C/C(N)=N/OC(=O)COc1ccc(C)cc1Br [CB22]
EC50 (HT-1080 cells): > 20 µg/mL

Cc1ccc(OCC(=O)O/N=C(\N)Cc2cccs2)c(Br)c1 [CB23]
EC50 (HT-1080 cells): > 20 µg/mL

N/C(Cc1cccs1)=N\OC(=O)COc1ccccc1 [CB24]
EC50 (HT-1080 cells): > 20 µg/mL

Cc1ccc(OCC(=O)O/N=C(\N)Cc2ccc([N+](=O)[O-])cc2)c(Br)c1 [CB25]
EC50 (HT-1080 cells): > 20 µg/mL

COc1ccccc1C/C(N)=N/OC(=O)COc1cccc(C)c1 [CB26]
EC50 (HT-1080 cells): > 20 µg/mL

N/C(Cc1cccc2ccccc12)=N\OC(=O)COc1ccccc1 [CB27]
EC50 (HT-1080 cells): > 20 µg/mL

Cc1ccccc1OCC(=O)O/N=C(\N)Cc1ccc(Cl)cc1Cl [CB28]
EC50 (HT-1080 cells): > 20 µg/mL

COc1ccccc1C/C(N)=N/OC(=O)COc1ccc(C)cc1 [CB29]
EC50 (HT-1080 cells): > 20 µg/mL

N/C(Cc1cccs1)=N\OC(=O)COc1ccc(Br)cc1 [CB30]
EC50 (HT-1080 cells): > 20 µg/mL

COc1ccc(C/C(N)=N/OC(=O)COc2ccccc2C)cc1 [CB31]
EC50 (HT-1080 cells): > 20 µg/mL

N/C(Cc1ccc(Cl)cc1Cl)=N\OC(=O)COc1ccccc1 [CB32]
EC50 (HT-1080 cells): > 20 µg/mL

COc1ccccc1C/C(N)=N/OC(=O)COc1ccccc1C [CB33]
EC50 (HT-1080 cells): > 20 µg/mL

Cc1cccc(OCC(=O)O/N=C(\N)Cc2ccc(Cl)cc2)c1 [CB34]
EC50 (HT-1080 cells): > 20 µg/mL

Cc1cccc(OCC(=O)O/N=C(\N)Cc2ccc(Cl)cc2Cl)c1 [CB35]
EC50 (HT-1080 cells): > 20 µg/mL

COc1ccc(C/C(N)=N/OC(=O)COc2ccc(Br)c(C)c2)cc1OC [CB36]
EC50 (HT-1080 cells): > 20 µg/mL

COc1ccc(C/C(N)=N/OC(=O)COc2ccc(Br)c(C)c2)cc1 [CB37]
EC50 (HT-1080 cells): > 20 µg/mL

Cc1cc(OCC(=O)O/N=C(\N)Cc2cccs2)ccc1Br [CB38]
EC50 (HT-1080 cells): > 20 µg/mL

Cc1cccc(OCC(=O)O/N=C(\N)Cc2ccc([N+](=O)[O-])cc2)c1 [CB39]
EC50 (HT-1080 cells): > 20 µg/mL

Cc1cccc(OCC(=O)O/N=C(\N)Cc2cccs2)c1 [CB40]
EC50 (HT-1080 cells): > 20 µg/mL

CCOc1ccccc1-n1c(C(C)N2CCN(C(=O)COc3ccc(Cl)cc3)CC2)nc2ccccc2c1=O (stereo not drawn) [erastin, reference compound]
AUC HT.ATA (HT-1080; HT-1080, modulator ATA): −0.1315
AUC HT.ActD (HT-1080; HT-1080, modulator ActD): −0.1111
AUC HT.BHA (HT-1080; HT-1080, modulator BHA): 0.1748
AUC HT.BHT (HT-1080; HT-1080, modulator BHT): 0.1243
AUC HT.BocD (HT-1080; HT-1080, modulator BocD): −0.003341
AUC HT.CHX (HT-1080; HT-1080, modulator CHX): 0.05504
AUC HT.Co2+ (HT-1080; HT-1080, modulator Co2+): −0.2142
AUC HT.CspA (HT-1080; HT-1080, modulator CspA): 0.02449
AUC HT.DPQ (HT-1080; HT-1080, modulator DPQ): 0.05672
AUC HT.EGTA (HT-1080; HT-1080, modulator EGTA): 0.01444
AUC HT.Gd3+ (HT-1080; HT-1080, modulator Gd3+): −0.01326
AUC HT.LNAME (HT-1080; HT-1080, modulator LNAME): −0.008731
AUC HT.Lmim (HT-1080; HT-1080, modulator Lmim): 0.2178
AUC HT.NAD+ (HT-1080; HT-1080, modulator NAD+): −0.02996
AUC HT.NMMA (HT-1080; HT-1080, modulator NMMA): 0.006826
AUC HT.Nec-1 (HT-1080; HT-1080, modulator Nec-1): −0.02551
AUC HT.Pepstatin (HT-1080; HT-1080, modulator Pepstatin): −0.02573
AUC HT.SP600125 (HT-1080; HT-1080, modulator SP600125): −0.03688
AUC HT.TLCK (HT-1080; HT-1080, modulator TLCK): 0.1167
AUC HT.U0126 (HT-1080; HT-1080, modulator U0126): 0.1525
HT.atoc (AUC) (HT-1080; HT-1080, modulator atoc): 0.2643
HT.bCarotene (AUC) (HT-1080; HT-1080, modulator bCarotene): −0.0215
HT.deferox (AUC) (HT-1080; HT-1080, modulator deferox): 0.3025
HT.digoxin (AUC) (HT-1080; HT-1080, modulator digoxin): −0.03393
HT.trolox (AUC) (HT-1080; HT-1080, modulator trolox): 0.2077
HT.zVAD (AUC) (HT-1080; HT-1080, modulator zVAD): −0.07207
AUC, modulator HT.3MA (HT-1080; HT-1080 cells, lethal compound cotreated with modulator 3MA, modulatory profile value (AUC)): −0.04578
AUC, modulator HT.ALLN (HT-1080; HT-1080 cells, lethal compound cotreated with modulator ALLN, modulatory profile value (AUC)): −0.06856
AUC, modulator BJ.3MA (BJeLR; lethal compound cotreated with modulator 3MA): 0.09348
AUC, modulator BJ.ALLN (BJeLR; lethal compound cotreated with modulator ALLN): −0.05751
AUC, modulator BJ.Boc D (BJeLR; lethal compound cotreated with modulator Boc D): −0.0006165
AUC, modulator BJ.CHX (BJeLR; lethal compound cotreated with modulator CHX): 0.09081
AUC, modulator BJ.Co2+ (BJeLR; lethal compound cotreated with modulator Co2+): −0.1704
AUC, modulator BJ.DPQ (BJeLR; lethal compound cotreated with modulator DPQ): −0.005058
AUC, modulator BJ.Gd3+ (BJeLR; lethal compound cotreated with modulator Gd3+): −0.0388
AUC, modulator BJ.LNAME (BJeLR; lethal compound cotreated with modulator LNAME): −0.03971
AUC, modulator BJ.Lmin/NAD+ (BJeLR; lethal compound cotreated with modulator Lmin/NAD+): 0.1538
AUC, modulator BJ.Lmin (BJeLR; lethal compound cotreated with modulator Lmin): 0.1115
AUC, modulator BJ.NAD+ (BJeLR; lethal compound cotreated with modulator NAD+): −0.02334
AUC, modulator BJ.NMMA (BJeLR; lethal compound cotreated with modulator NMMA): −0.05625
AUC, modulator BJ.Nec-1 (BJeLR; lethal compound cotreated with modulator Nec-1): 0.1665
AUC, modulator BJ.Pepstatin (BJeLR; lethal compound cotreated with modulator Pepstatin): 0.1892
AUC, modulator BJ.TLCK (BJeLR; lethal compound cotreated with modulator TLCK): 0.0155
AUC, modulator BJ.atoc (BJeLR; lethal compound cotreated with modulator atoc): 0.3276
AUC, modulator BJ.trolox (BJeLR; lethal compound cotreated with modulator trolox): 0.2492
AUC, modulator BJ.zVAD (BJeLR; lethal compound cotreated with modulator zVAD): −0.005301

— US10947188B2, “Small molecule ferroptosis inducers” (THE TRUSTEES OF COLUMBIA UNIVERSITY IN THE CITY OF NEW YORK, priority 2016, dated 2021)
